Test results: patent US20060088886A1, “Topiramate analogs” (priority 2004, published 2006)

Key:
[1] = system: anti-topiramate antibodies prepared with immunogen (18); assay: ELISA binding inhibition study (avidity), free topiramate vs coated antigens; parameters: species or system Rabbit; conditions: for Abs Antigen 16 / Abs Antigen 19 / Abs Antigen 20: 405 nm
Procedure: ELISA plates for use in an ELISA assay are prepared in order to study the polyclonal antibody prepared as described in Example 21. As such, various topiramate antigens (16), (19), and (20) are coated on different ELISA plates before being subjected to the anti-topiramate antibody and competing free topiramate. More particularly, the topiramate antigens are diluted in coating buffer, and then added to the wells of ELISA plate. After the ELISA plate is inculcated for 60 min at 37° C., the solvent in the coating buffer is decanted and a blocking buffer is added to the plate. The plate is incubated again for 60 min at 37° C., and the solvent in the blocking buffer is decanted from the plate. The ELISA plate is then stored with the blocking agent in the wells at 2-8° C. for up to 1 week. The avidity of the anti-topiramate antibodies prepared with immunogen (17) for topirainate analogs are determined by a binding inhibition study. As such, samples are prepared in 1 mL of PBS at pH 7.4 with 0.1% BSA. A composition having 30% Bmax titer or 50% Bmax titer is used to divide the obtained titer value into approximately half the titer value. Using 30% Bmax, an antibody titer of 1:10000 is diluted to 1:5000 during the sample preparation stage. About 50 μL of topiramate at different concentrations or calibrator values, (0, 2, 4, 8, 16, 32 μg/ml) are then applied to a plate as prepared in accordance with Example 22. About 50 μL of the diluted antibody is dispensed into the plate, and the compositions in the plate are mixed for 1 min on a horizontal plate shaker. The plate is characterized by a first row not containing topiramate or anti-topiramate antibody, wherein the first row is used as a negative control. A second row not containing topiramate is used as the positive control. The plate is incubated for 60 min, and washed three times with 250 μL of PBS at pH 7.4 with 0.05% tween. About 125 μL of a diluted second antibody conjugate such as antigens (16), (19), or (20), in PBS at pH 7.4 is added to each well of the plate. Titer is determined experimentally by the plate being incubated for 60 min at 37° C. and washed 3 times with 250 μL PBS, pH 7.4 with 0.05% tween. Subsequently, about 125 μL of ABTS substrate is added to each well of the plate and incubated for 20 min. The avidity of the anti-topiramate antibodies prepared with immunogen (18) for topiramate analogs is determined by a binding inhibition study performed with an experimental protocol substantially similar as in Example 24.

[2] = system: sheep polyclonal antibodies that bind with topiramate prepared from immunogen (18); assay: QMS homogeneous particle-enhanced immunoturbidimetric assay; type: binding; conditions: Polyclonal antibody R1, Topiramate antigen (19) coated Latex
Procedure: An immunoturbidimetric or QMS® assay, which is a homogeneous particle-enhanced immunoturbidimetric experiment, is performed to test the polyclonal antibodies prepared as in Example 21. […] Additionally, suitable specimens can be prepared from serum and plasma. Serum can be collected by standard venipuncture techniques and placed into glass or plastic tubes with or without gel barriers. […] In the instance the specimen is centrifuged before a complete clot forms, the presence of fibrin may cause erroneous results. Accordingly, the serum can be separated from red blood cells as soon after collection as possible. Plasma can also be used with acceptable anticoagulants, such as lithium heparin, sodium heparin, potassium EDTA, and a heparin gel plasma separator. The plasma can be collected by standard venipuncture techniques and placed into glass or plastic tubes. Also, centrifugation is used to ensure the adequate removal of platelets. The plasma can be separated from red blood cells as soon as possible after collection. The specimens that contain particulate matter or red blood cells may give inconsistent results, but can be centrifuged before testing at a recommended 8,000 to 10,000 RCF×10 minutes to produce a suitable specimen. The assay procedure is initiated by diluting the specimen because the specimens with topiramate can be used to generate results that exceed the highest calibrator value. As such, the specimens may be diluted manually or by using an automated onboard dilution protocol. The assay is based on competition for topiramate-specific antibody binding sites between drug in the sample and drug coated onto a microparticle of topiramate-coated microparticle reagent is rapidly agglutinated in the presence of the anti-topiramate antibody reagent and in the absence of any competing drug in the sample. The rate of absorbance change is measured photometrically, and is directly proportional to the rate of agglutination of the particles. […] A concentration-dependent classic agglutination inhibition curve can be obtained, with maximum rate of agglutination at the lowest topiramate concentration (at zero μg/ml) and the lowest agglutination rate at the highest topiramate concentration (32 μg/ml). The QMS® topiramate assay is initiated after the being calibrated using a full calibration (6-point) procedure. The QMS® is performed as directed in operation manuals in accordance with the average skill of one in the art.

[3] = Rabbit No. 5490, topiramate 2 μg/ml
[4] = Rabbit No. 5490, topiramate 4 μg/ml
[5] = Rabbit No. 5490, topiramate 8 μg/ml
[6] = Rabbit No. 5490, topiramate 16 μg/ml
[7] = Rabbit No. 5490, topiramate 32 μg/ml
[8] = Rabbit No. 5495, topiramate 2 μg/ml
[9] = Rabbit No. 5495, topiramate 4 μg/ml
[10] = Rabbit No. 5495, topiramate 8 μg/ml
[11] = Rabbit No. 5495, topiramate 16 μg/ml
[12] = Rabbit No. 5495, topiramate 32 μg/ml

B/Bo Antigen 16 [1, 3]: 0.35
B/Bo Antigen 19 [1, 3]: 0.18
B/Bo Antigen 20 [1, 3]: 0.63
Abs Antigen 16 [1, 3]: 0.25
Abs Antigen 19 [1, 3]: 0.10
Abs Antigen 20 [1, 3]: 0.25
B/Bo Antigen 16 [1, 4]: 0.28
B/Bo Antigen 19 [1, 4]: 0.10
B/Bo Antigen 20 [1, 4]: 0.60
Abs Antigen 16 [1, 4]: 0.20
Abs Antigen 19 [1, 4]: 0.06
Abs Antigen 20 [1, 4]: 0.24
B/Bo Antigen 16 [1, 5]: 0.21
B/Bo Antigen 19 [1, 5]: 0.07
B/Bo Antigen 20 [1, 5]: 0.55
Abs Antigen 16 [1, 5]: 0.15
Abs Antigen 19 [1, 5]: 0.04
Abs Antigen 20 [1, 5]: 0.22
B/Bo Antigen 16 [1, 6]: 0.17
B/Bo Antigen 19 [1, 6]: 0.06
B/Bo Antigen 20 [1, 6]: 0.53
Abs Antigen 16 [1, 6]: 0.12
Abs Antigen 19 [1, 6]: 0.03
Abs Antigen 20 [1, 6]: 0.21
B/Bo Antigen 16 [1, 7]: 0.14
B/Bo Antigen 19 [1, 7]: 0.04
B/Bo Antigen 20 [1, 7]: 0.50
Abs Antigen 16 [1, 7]: 0.10
Abs Antigen 19 [1, 7]: 0.02
Abs Antigen 20 [1, 7]: 0.20
B/Bo Antigen 16 [1, 8]: 0.35
B/Bo Antigen 19 [1, 8]: 0.20
B/Bo Antigen 20 [1, 8]: 0.53
Abs Antigen 16 [1, 8]: 0.25
Abs Antigen 19 [1, 8]: 0.13
Abs Antigen 20 [1, 8]: 0.18
B/Bo Antigen 16 [1, 9]: 0.39
B/Bo Antigen 19 [1, 9]: 0.12
B/Bo Antigen 20 [1, 9]: 0.50
Abs Antigen 16 [1, 9]: 0.28
Abs Antigen 19 [1, 9]: 0.08
Abs Antigen 20 [1, 9]: 0.17
B/Bo Antigen 16 [1, 10]: 0.21
B/Bo Antigen 19 [1, 10]: 0.08
B/Bo Antigen 20 [1, 10]: 0.47
Abs Antigen 16 [1, 10]: 0.15
Abs Antigen 19 [1, 10]: 0.05
Abs Antigen 20 [1, 10]: 0.16
B/Bo Antigen 16 [1, 11]: 0.17
B/Bo Antigen 19 [1, 11]: 0.06
B/Bo Antigen 20 [1, 11]: 0.41
Abs Antigen 16 [1, 11]: 0.12
Abs Antigen 19 [1, 11]: 0.04
Abs Antigen 20 [1, 11]: 0.14
B/Bo Antigen 16 [1, 12]: 0.14
B/Bo Antigen 19 [1, 12]: 0.03
B/Bo Antigen 20 [1, 12]: 0.32
Abs Antigen 16 [1, 12]: 0.10
Abs Antigen 19 [1, 12]: 0.02
Abs Antigen 20 [1, 12]: 0.11
Compound: CC1(C)O[C@@H]2[C@@H](CO[C@@]3(COS(N)(=O)=O)OC(C)(C)O[C@@H]23)O1 [Topiramate, 2,3:4,5-di-O-isopropylidene-beta-D-fructopyranose sulfamate]
Rate (Delta Absorbance) ([2]; topiramate 2 μg/ml sample): 159
Rate (Delta Absorbance) ([2]; topiramate 4 μg/ml sample): 122
Rate (Delta Absorbance) ([2]; topiramate 8 μg/ml sample): 60
Rate (Delta Absorbance) ([2]; topiramate 16 μg/ml sample): 16
Rate (Delta Absorbance) ([2]; topiramate 32 μg/ml sample): 4
